# According to US20080254106A1 (SWITCH BIOTECH AG, priority 2004, published 2008):
# Legend:
# HaCaT keratinocytes = experiment: Proliferation of HaCaT keratinocytes (BrDU incorporation); format: cell-based; settings: Homo sapiens, 48 hours treatment, relative to FCS stimulated positive control, mean of at least four experiments
# Method: As a negative control cells were incubated with KBM.
# For this purpose 5×10^3 HaCaT keratinocytes were seeded into 60 wells of a 96 well-plate in 200 μl KBM/10% FCS each and incubated for 24 hours at 37° C. […] At the end of the second incubation period the medium was removed and cell proliferation was determined by BrDU incorporation (Roche, #1 669 915) according to the manufacturer's instructions. […] All other values were divided by the 100% value to obtain the relative percentage of proliferation. […] At least four independent experiments were performed.
# [1] = system: α-CD3 stimulated peripheral blood mononuclear cells; experiment: Proliferation of anti-CD3 stimulated PBMCs/T cells ([3H]-thymidine incorporation); format: cell-based
# Method: Peripheral blood mononuclear cells (PBMCs) were isolated by Ficoll-gradient centrifugation from peripheral blood. 1×10^6 PBMCs/ml were re-suspended in RPMI/10% fetal calf serum (FCS) in 96-well plates in a concentration of 2×10^5 cells/well. […] As positive and negative controls PBMCs were used, which were stimulated by anti-CD3-antibody and non-stimulated PBMCs, respectively. The final concentration of the solvent DMSO was 0.1% in all examined wells. After two further days of incubation the cells were incubated with 1 μCi per well [^3H]-thymidine for 18 hours. The cells were then recovered on glass fibre filters by using a Micro 96 Harvester (Skatron Instruments, Lier, Norway). The incorporated radioactivity was analysed with a Packard Matrix 9600 Counter (Can berra Packard, Schwadorf, Austria). The experiments were carried out with the blood of three different donors. […] All other values were divided by the 100% value to obtain the relative percentage of proliferation.
# TNFα = experiment: Secretion of TNFα of LPS stimulated THP-1 cells (ELISA); format: cell-based; settings: 50 ng/ml LPS, six hours, concentration of 10 μmol/l and higher
# Method: After stimulation with 50 ng/ml LPS the release of TNFα was determined.
# After 2 h cells were stimulated with 50 ng/ml LPS. Six hours after LPS addition, culture supernatants were collected. TNFα concentrations were measured using an enzyme linked immunosorbent assay according to manufacturers protocol (R&D systems, #DTA00C). The TNFα concentrations reached after LPS stimulation without further treatment was set to 100%.
# [2] = system: transplanted human psoriatic skin biopsies; experiment: Human psoriatic skin transplant SCID mouse model; format: in vivo, SCID mice; settings: 50 mg/kg daily intraperitoneal, four weeks, in comparison to vehicle control animals
# Method: SCID mice were transplanted with human psoriatic skin biopsies. Two weeks after surgery therapy started. […] After four weeks of therapy the mice were sacrificed and biopsies were taken. 4 μm slices of the biopsies were stained with Masson trichrom. Epidermal areas were calculated. […] Treatment started two weeks after the transplantation. […] For therapy, 300 μl of a 5 mg/ml solution was daily injected intraperitonally (=50 mg/kg). The control group was injected in the same way with 300 μl vehicle. After four weeks the animals were sacrificed. The biopsies were removed, histologically stained (Masson trichrom) and examined for changes of the epidermal area.
# [3] = DTH (oxazolone) mouse ear swelling model; format: in vivo; settings: topical 4%, 1%, 0.1% and 0.01% in acetone/olive oil, compared to placebo control
# Method: A mixture of acetone/olive oil (4:1 vol/vol) is used as vehicle. Ear thickness is measured before start of the treatment (day 0), before challenge (day 6), and 24 h after challenge (d7, ear swelling response) (instrumentation e.g. Mitutoyo-Messgeräte GmbH). In addition, at the end of the experiment ear weights are determined by weighing 8 mm punch biopsies taken from both ears of each individual animal.
# monoamine oxidase A = molecular target: T1, monoamine oxidase A (Homo sapiens, UniProt P21397); settings: proposed mechanism of action; cited from earlier work
# T1 sequence (P21397 1-527): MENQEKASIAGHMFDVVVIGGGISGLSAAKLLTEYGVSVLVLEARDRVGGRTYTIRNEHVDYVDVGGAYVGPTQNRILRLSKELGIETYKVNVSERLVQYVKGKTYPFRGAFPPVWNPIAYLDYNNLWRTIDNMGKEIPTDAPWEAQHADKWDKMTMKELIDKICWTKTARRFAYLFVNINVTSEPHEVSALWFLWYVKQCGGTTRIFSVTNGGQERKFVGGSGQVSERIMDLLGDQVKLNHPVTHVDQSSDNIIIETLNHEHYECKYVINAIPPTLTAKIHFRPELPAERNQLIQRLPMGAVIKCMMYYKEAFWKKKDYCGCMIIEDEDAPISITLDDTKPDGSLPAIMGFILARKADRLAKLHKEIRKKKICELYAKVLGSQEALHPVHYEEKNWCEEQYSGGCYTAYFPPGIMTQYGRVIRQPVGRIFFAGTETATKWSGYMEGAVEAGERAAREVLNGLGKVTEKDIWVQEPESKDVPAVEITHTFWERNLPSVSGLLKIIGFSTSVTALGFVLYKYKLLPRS
# noradrenaline reuptake = settings: cited from earlier work
# [4] = system: 5-hydroxytryptamine reuptake; settings: cited from earlier work
# dopaminergic system = settings: cited from earlier work
# cholinergic system = settings: cited from earlier work
structure (smiles),measurement,setting,value
"Cc1ccc2c(c1)c1c3n2CCNC3CCC1 (centres unmarked) [Pirlindole, 2,3,3a,4,5,6-hexahydro-8-methyl-1H-pyrazino[3,2,1-jk]carbazole]",IC50,HaCaT keratinocytes,47 µM
same,IC50,"[1]; PBMC, 10 μg/ml soluble anti-CD3-antibody, [3H]-thymidine, three donors, mean",16 µM
same,Inhibitory effect on proliferation in vitro,"[1]; at a concentration of Pirlindole of 10 μmol/l (examples 2, 3)",inhibitory effect
same,Release of TNFα,TNFα,clear inhibition
same,Epidermal area of the transplants,[2],clearly decreased
same,"Parameters of inflammation severity (ear weight, ear thickness)",[3],improvement of one or more parameters of inflammation severity
same,Inhibition of monoamine oxidase A,monoamine oxidase A,selective and reversible inhibition
same,Effect on noradrenaline reuptake,noradrenaline reuptake,inhibitory effect
same,Effect on 5-hydroxytryptamine reuptake,[4],inhibitory effect
same,Effect on the dopaminergic system,dopaminergic system,no effect
same,Effect on the cholinergic system,cholinergic system,no effect
